# Measurements published in PMC5655053, “Pharmacological Basis of CD101 Efficacy: Exposure Shape Matters” (Antimicrobial Agents and Chemotherapy, 2017).
# Several values for one entry are separate records, joined by “and”; a condition that tells them apart may be missing. Equal values may be shown once. Read-outs that look alike come from different tables or passages of the source. Numbered stars: 1 amine (or outer) side, 2 acyl side, 3 side chain; on linkers, the order of the positions; unused ones are H or OH. Bridge positions count the residues as written; N and C are the ends. Square brackets hold non-standard residues; d marks the D form. Peptide text beside a SMILES is read from it. * marks the point of attachment. Orn(4R-OH,5R-OCH2CH2NMe3+) = C[N+](C)(C)CCO[C@@H](N[*:3])[C@H](O)C[C@H](N[*:1])C(=O)[*:2]; pTerphenylCO(4''-OnC5H11) = CCCCCOc1ccc(-c2ccc(-c3ccc(C(=O)*)cc3)cc2)cc1; hTyr(3S-OH,4S-OH) = N[C@H](C(=O)O)[C@H](O)[C@@H](O)c1ccc(O)cc1; Pro(3S-OH,4S-Me) = C[C@H]1CN[C@H](C(=O)O)[C@H]1O; Hyp = O=C(O)[C@@H]1C[C@@H](O)CN1
# Key:
# [1] = system: hepatocytes of Sprague-Dawdley rats; conditions: supratherapeutic (comparable) doses, 2-week repeated-dose study; cited from earlier work
# Description: The echinocandin CD101 is a novel antifungal agent with activity against Aspergillus and Candida species, including azole- and echinocandin-resistant isolates ([1], [2]). This compound is a structural analog of anidulafungin but differs in certain beneficial ways with regard to toxicological and pharmacokinetic properties.
# [2] = cited from earlier work
# Candida albicans R303 [3] = test: Front-loaded dose studies, neutropenic murine disseminated candidiasis model; type: in vivo, ICR mice
# Description: Fungi in the no-treatment control group grew well and reached a density of greater than 1 × 10^6 CFU/g by 48 h. The magnitudes of net change in log10 CFU from the baseline at 168 h were similar regardless of the fractionation schedule within the CD101 0.7 mg/kg and 7 mg/kg dosing groups. […] In the 7 mg/kg dose group, the magnitude of net change was greater than 2 log10 CFU reduction from the baseline at 168 h, regardless of the fractionation schedule. Conversely, results within the CD101 2 mg/kg group differed across the fractionation schedules. […] However, when this dose was front-loaded (i.e., delivered entirely on day 1), there was a greater than 2 log10 CFU reduction from the baseline at 168 h.
# (§1) A neutropenic, murine, disseminated candidiasis model was used for the evaluation of the effects of the CD101 dosing regimens on efficacy. Male or female ICR mice (n = 5 per regimen and observation time) weighing 22 ± 2 g were rendered neutropenic by treatments using the injection of cyclophosphamide 4 days prior to infection (day −4) and 1 day prior to infection (day −1) at 150 and 100 mg/kg i.p., respectively. Neutropenia was sustained for the duration of the study with cyclophosphamide doses (100 mg/kg i.p.) administered every 48 h on days 1, 3, 5, and 7 after infection. Each animal was inoculated, using a lateral tail vein injection, with 1 × 10^3 CFU of Candida albicans (isolate R303). CD101 (or vehicle) was administered 24 h postinfection via i.p. injection. Mice were euthanized with CO2 at 168 h (7 days) following the start of treatment. Mice in the control group were euthanized 0, 24, and 48 h after administration of vehicle. Paired kidneys were aseptically harvested and homogenized, and serial dilutions were plated for colony counts to determine the fungal burden (measured in CFU per gram). Kidney counts were not determined in animals that expired prior to the scheduled sacrifice time. The front-loaded dose studies was performed under animal biosafety level 2 conditions in an Association for Assessment and Accreditation of Laboratory Animal Care-accredited vivarium, at Eurofins Panlabs Taiwan, Ltd., with the oversight of veterinarians to ensure compliance with the Eurofins Panlabs Institutional Animal Care and Use Committee regulations and the humane treatment of laboratory animals.
# [4] = Single-dose i.p. pharmacokinetic study in mice, plasma, four-compartment model; type: in vivo, ICR mice; conditions: for maximum plasma concentration: female ICR mice, at first sampling (1 h), LC-MS/MS
# Description: A four-compartment model best described the disposition of this agent in murine plasma. […] The coefficient of determination (r^2) for the model-predicted concentrations versus observed concentrations was 0.97. […] All model parameters were estimated with excellent precision, as indicated by a standard error of the mean (SEM) of less than 20% for 7 of 8 of the model parameters.
# Healthy female ICR mice weighing 20 to 24 g were administered a single dose of CD101 via intraperitoneal (i.p.) injection. Doses of 1, 4, and 16 mg/kg of body weight were studied, utilizing 3 animals per dose level. Whole-blood samples (one sample per animal) were collected at 1, 3, 6, 12, 24, 48, 72, and 96 h postdose. Plasma was collected by centrifugation, and samples were stored at −20°C or below. Samples were analyzed using liquid chromatography with tandem mass spectrometry detection and an AB-SCIEX API 4000 mass spectrometry system. The method used in the analysis was qualified as fit for the purpose: calibration standards were matrix matched, and, for each analytical batch, triplicate calibration standards were included at the beginning of the batch, approximately in the middle, and at the end. Following analysis, quantitation is carried out by a calibration curve comprising analyte/internal standard area ratio versus concentration. Calibration standards ranged from 0.5 mg/liter (lower limit of quantitation [LLOQ]) to 100 mg/liter. Analytical batch acceptance followed the general guidance criterion that standards/quality control should be within ±20% for accuracy (percent nominal concentration) and ≤20% for precision (percent coefficient of variation). For analysis, plasma samples were quenched with acetonitrile (4:1 acetonitrile/plasma ratio) containing diclofenac as the internal standard. Animals were maintained in accordance with the criteria of the American Association for Assessment and Accreditation of Laboratory Animal Care (AAALAC). The pharmacokinetic study was approved by the Animal Research Committee of the William S. Middleton Memorial Veterans Affairs Hospital and the University of Wisconsin.
# (§2) Data collected from the pharmacokinetic study described above were used to develop a pharmacokinetic model describing the disposition of CD101 in mice in S-ADAPT ([21]). The developed pharmacokinetic model, along with the unbound CD101 fraction, was used to simulate free-drug concentration-time profiles for each dosing regimen administered in the front-loaded dose studies. Free-drug AUC0–168 values were calculated through numeric integration of CD101 free-drug concentration-time profiles. Relationships between changes in log10 CFU at 168 h and free-drug AUC0–168/MIC ratios were explored.
# [5] = Observation for overt toxicity in mice of the front-loaded dose studies; type: in vivo, ICR mice; conditions: any of the mice evaluated
# Description: (§3) Simulated free-drug plasma concentration-time profiles of the three fractionated CD101 2 mg/kg dosing regimens are shown in Fig. 4.
# as §1, with “The front-loaded dose studies was performed under animal biosafety level 2 conditions in an Association for Assessment and Accreditation of Laboratory Animal Care-accredited vivarium, at Eurofins Panlabs Taiwan, Ltd., with the oversight of veterinarians to ensure compliance with the Eurofins Panlabs Institutional Animal Care and Use Committee regulations and the humane treatment of laboratory animals.” left out
# [6] = Simulated free-drug plasma concentration-time profiles of the fractionated regimens; set-up: species or system mouse; conditions: mice
# Description: as §3, §2
# Candida albicans R303 [7] = test: Broth microdilution susceptibility testing (CLSI M27-A3); type: cell-based; conditions: C. albicans R303, CLSI M27-A3, RPMI 1640, 35°C, read at 24 h, ~50% growth inhibition, modal value of three occasions
# Description: CD101 was supplied by Cidara Therapeutics, Inc. (San Diego, CA). Stock solutions of CD101 were prepared in dimethyl sulfoxide (DMSO) for the susceptibility testing. The vehicle used for dosing in the in vivo studies was 10% DMSO–1% Tween 20–saline solution. The challenge isolate utilized in these studies was Candida albicans R303. Susceptibility testing was done in accordance with the Clinical and Laboratory Standards Institute (CLSI) M27-A3 methods, using RPMI 1640 medium, an initial inoculum of 0.5 × 10^3 to 2.5 × 10^3 CFU/ml, and incubation at 35°C ([20]). MIC plates were read following 24 h of incubation, and MIC values are reported as concentrations resulting in prominent (∼50%) growth inhibition. Susceptibility testing was performed on three separate occasions. Final results were expressed as modal values. Quality control was performed on each day of testing using CLSI-recommended reference strains (C. krusei ATCC 6258 and C. parapsilosis ATCC 22019).
# [8] = four-compartment model, murine plasma, 1-16 mg/kg i.p.
compound,measurement,setting,value
anidulafungin [reference compound],hepatocyte findings,[1],hepatocellular necrosis ranging from mild to moderate
oritavancin [reference compound],terminal half-life,[2],~245 h
"CCCCCOc1ccc(-c2ccc(-c3ccc(C(=O)N[C@H]4C[C@@H](O)[C@@H](OCC[N+](C)(C)C)NC(=O)[C@@H]5[C@@H](O)[C@@H](C)CN5C(=O)[C@H]([C@@H](C)O)NC(=O)[C@H]([C@H](O)[C@@H](O)c5ccc(O)cc5)NC(=O)[C@@H]5C[C@@H](O)CN5C(=O)[C@H]([C@@H](C)O)NC4=O)cc3)cc2)cc1 [CD101] ({pTerphenylCO(4''-OnC5H11)}-[Orn(4R-OH,5R-OCH2CH2NMe3+)]T[Hyp][hTyr(3S-OH,4S-OH)]T[Pro(3S-OH,4S-Me)]; lactam 1-C)",log10 CFU reduction from the baseline at 168 h,"Candida albicans R303 [3]; total 2 mg/kg as single dose (2 mg/kg x 1), kidney burden, neutropenic ICR mice, n = 5",> 2 log10 CFU and 2 log10 CFU
same,log10 CFU increase from the baseline at 168 h,"Candida albicans R303 [3]; total 2 mg/kg daily (0.29 mg/kg/day x 7), kidney burden, neutropenic ICR mice, n = 5",> 1 log10 CFU and 1 log10 CFU
same,net change in log10 CFU from the baseline at 168 h,"Candida albicans R303 [3]; total 2 mg/kg twice weekly (1 mg/kg x 2), kidney burden, neutropenic ICR mice, n = 5",net fungal stasis
same,log10 CFU reduction from the baseline at 168 h,"Candida albicans R303 [3]; total 7 mg/kg i.p., regardless of the fractionation schedule",greater than 2 log10 CFU
same,terminal half-life,"[2]; humans, healthy volunteers",~133 h
same,maximum plasma concentration,[4]; 1 mg/kg i.p. single dose,3.97 mg/L
same,maximum plasma concentration,[4]; 4 mg/kg i.p. single dose,13.6 mg/L
same,maximum plasma concentration,[4]; 16 mg/kg i.p. single dose,52.0 mg/L
same,pharmacokinetics over the studied dose range,"[4]; 1 to 16 mg/kg i.p., mice",linear pharmacokinetics
same,"Q2 (distributional clearance), final estimate",[4]; [8],0.255 mL/min/kg
same,"Q3 (distributional clearance), final estimate",[4]; [8],5.2 mL/min/kg
same,"Q4 (distributional clearance), final estimate",[4]; [8],1.2 mL/min/kg
same,"V1 (central compartment volume), final estimate",[4]; [8],0.201 L/kg
same,"V2 (peripheral compartment volume), final estimate",[4]; [8],0.871 L/kg
same,"V3 (peripheral compartment volume), final estimate",[4]; [8],0.0341 L/kg
same,"V4 (peripheral compartment volume), final estimate",[4]; [8],0.165 L/kg
same,CL/F,"[4]; mouse, in vivo, ip, four-compartment model, murine plasma, 1-16 mg/kg i.p., read-out: CLt (total clearance), final estimate (converted)",0.173 mL/min/kg
same,overt signs of toxicities,[5],No overt signs of toxicities
same,free-drug AUC0-24 of single-dose regimen relative to daily regimen,[6]; 2 mg/kg total dose,7 fold
same,AUC0-168 of daily 1 mg/kg regimen relative to 2 mg/kg front-loaded regimen,[6],approximately 3 fold
same,modal MIC,Candida albicans R303 [7],0.125 µg/mL
same,hepatocyte findings,[1],no changes were observed
